Experiments:
Details in all cases: 72 h
Caco-2 [1] = test: cell viability relative to DMSO; higher = less toxic
Calu-3 [2] = test: as above
U2OS [3] = test: as above
Caco-2 [4] = test: relative viability EC50 (midpoint between 100% and the lowest measured viability); higher = less toxic
Calu-3 [5] = test: as above
U2OS [6] = test: as above
Caco-2 [7] = test: drug sensitivity score (DSS) for viability; higher = more toxic; extreme values may be limits of the assay
Calu-3 [8] = test: as above
U2OS [9] = test: as above
HepG2 [10] = test: cell viability relative to DMSO; higher = less toxic
HepG2 [11] = test: relative viability EC50 (midpoint between 100% and the lowest measured viability); higher = less toxic
HepG2 [12] = test: drug sensitivity score (DSS) for viability; higher = more toxic; extreme values may be limits of the assay
Vero E6 [13] = test: cell viability relative to DMSO; higher = less toxic
Vero E6 [14] = test: relative viability EC50 (midpoint between 100% and the lowest measured viability); higher = less toxic
Vero E6 [15] = test: drug sensitivity score (DSS) for viability; higher = more toxic; extreme values may be limits of the assay

Row | SMILES | cell viability (Caco-2 [1]; 1 nM) [%] | cell viability (Caco-2 [1]; 10 nM) [%] | cell viability (Caco-2 [1]; 100 nM) [%] | cell viability (Caco-2 [1]; 1000 nM) [%] | cell viability (Caco-2 [1]; 10000 nM) [%] | cell viability (Calu-3 [2]; 1 nM) [%] | cell viability (Calu-3 [2]; 10 nM) [%] | cell viability (Calu-3 [2]; 100 nM) [%] | cell viability (Calu-3 [2]; 1000 nM) [%] | cell viability (Calu-3 [2]; 10000 nM) [%] | cell viability (U2OS [3]; 1 nM) [%] | cell viability (U2OS [3]; 10 nM) [%] | cell viability (U2OS [3]; 100 nM) [%] | cell viability (U2OS [3]; 1000 nM) [%] | cell viability (U2OS [3]; 10000 nM) [%] | relative viability EC50 (Caco-2 [4]) [µM] | relative viability EC50 (Calu-3 [5]) [µM] | relative viability EC50 (U2OS [6]) [µM] | drug sensitivity score (Caco-2 [7]) | drug sensitivity score (Calu-3 [8]) | drug sensitivity score (U2OS [9]) | cell viability (HepG2 [10]; 1 nM) [%] | cell viability (HepG2 [10]; 10 nM) [%] | cell viability (HepG2 [10]; 100 nM) [%] | cell viability (HepG2 [10]; 1000 nM) [%] | cell viability (HepG2 [10]; 10000 nM) [%] | relative viability EC50 (HepG2 [11]) [µM] | drug sensitivity score (HepG2 [12]) | cell viability (Vero E6 [13]; 1 nM) [%] | cell viability (Vero E6 [13]; 10 nM) [%] | cell viability (Vero E6 [13]; 100 nM) [%] | cell viability (Vero E6 [13]; 1000 nM) [%] | cell viability (Vero E6 [13]; 10000 nM) [%] | relative viability EC50 (Vero E6 [14]) [µM] | drug sensitivity score (Vero E6 [15])
1 | C/C(=C\C(N)C(=O)O)CP(=O)(O)O (stereo unspecified) | 102 | 110 | 97.5 | 90 | 101 | 95.9 | 98.3 | 104 | 96.2 | 101 | 101 | 96.3 | 97 | 97.1 | 104 | > 10 | > 10 | > 10 | 0 | 0 | 0 |  |  |  |  |  |  |  |  |  |  |  |  |  | 
2 | CS(=O)(=O)Nc1ccc(-c2coc3cc(OCc4cccc(C(=O)O)c4)ccc3c2=O)cc1 | 94.9 | 97.6 | 97.7 | 97.1 | 101 | 108 | 90.4 | 96.2 | 101 | 103 | 97.8 | 99.1 | 107 | 105 | 103 | > 10 | > 10 | > 10 | 0 | 0 | 0 | 92.6 | 107 | 101 | 109 | 93.2 | > 10 | 0 |  |  |  |  |  |  | 
3 | CS(=O)(=O)c1cccc(CNc2nc(Nc3ccc4c(c3)CCC(=O)N4)ncc2C(F)(F)F)c1 | 94.6 | 101 | 95.3 | 96.6 | 85.5 | 108 | 99.5 | 101 | 88.2 | 88.5 | 98.3 | 97.6 | 93.7 | 92.4 | 46 | > 10 | > 10 | 2.04 | 0.3 | 0.5 | 4.2 | 104 | 111 | 94.4 | 94.9 | 50.2 |  | 3.5 | 103 | 96.9 | 99.1 | 87 | 78.8 | > 10 | 1.8
4 | Cc1ccc2c(N3CCN(CCc4cccc(N5CCNC5=O)c4)CC3)cccc2n1 | 104 | 98 | 93.9 | 101 | 96 | 93.6 | 94.8 | 108 | 99.2 | 97.6 | 101 | 101 | 101 | 95.5 | 97.7 | > 10 | > 10 | > 10 | 0 | 0 | 0 | 96.1 | 98.6 | 89.2 | 92.8 | 73.5 |  | 1.7 | 99.8 | 100 | 98.3 | 103 | 96.3 | > 10 | 0
5 | O=C(Nc1cccnc1)c1cc(-c2ccnc(F)c2)ccc1OCc1ccccc1 | 107 | 110 | 94.8 | 92 | 86.6 | 94.2 | 102 | 96.5 | 102 | 104 | 95.6 | 100 | 95.1 | 96.3 | 97.3 | > 10 | > 10 | > 10 | 0.4 | 0 | 0 |  |  |  |  |  |  |  | 99.3 | 101 | 97.8 | 98 | 95.2 | > 10 | 0
6 | O=C1Nc2ccccc2C2(CCN(CCc3ccc(C(F)(F)F)cc3)CC2)O1 | 93.3 | 97.2 | 94.7 | 99.2 | 78.6 | 99.7 | 98.7 | 102 | 108 | 82.4 | 100 | 94.9 | 99.8 | 94.7 | 91.2 | > 10 | > 10 | > 10 | 0.8 | 0.2 | 0 | 97.7 | 96.2 | 88.8 | 100 | 58.1 |  | 2.1 | 95.6 | 99 | 97.2 | 96.3 | 93.5 | > 10 | 0
7 | Cc1nc[nH]c1CCN [4-methylhistamine] | 91.9 | 95.1 | 99.2 | 100 | 101 | 89.5 | 101 | 107 | 88 | 99.2 | 95.1 | 99.5 | 104 | 98 | 104 | > 10 | > 10 | > 10 | 0 | 0 | 0 | 98.1 | 98.6 | 88.5 | 96.2 | 91.9 | > 10 | 0 |  |  |  |  |  |  | 
8 | Cc1ccc2c(=O)c3cccc(CC(=O)O)c3oc2c1C [ASA-404] | 94.6 | 98.6 | 99 | 96 | 93.3 | 98 | 86.7 | 105 | 99.4 | 102 | 100 | 97.4 | 101 | 99.7 | 103 | > 10 | > 10 | > 10 | 0 | 0 | 0 |  |  |  |  |  |  |  | 102 | 106 | 102 | 108 | 97.6 | > 10 | 0
9 | Nc1nc(-c2nn(Cc3ccccc3F)c3ncccc23)ncc1C1CC1 [BAY-41-2272] | 86.5 | 90.5 | 94.1 | 100 | 93.8 | 100 | 108 | 91.7 | 104 | 110 | 90 | 96.6 | 93.9 | 101 | 105 | > 10 | > 10 | > 10 | 0 | 0 | 0 | 95.8 | 103 | 95.8 | 104 | 69.2 |  | 1.1 | 102 | 96.1 | 97.3 | 86 | 66.7 |  | 2.9
10 | N#C/C(=C\c1ccc(O)cc1)C(=O)O [CHC] | 108 | 98.5 | 102 | 87.6 | 102 |  |  |  |  |  | 101 | 93.4 | 97.6 | 98.6 | 99.7 | > 10 |  | > 10 | 0 |  | 0 | 106 | 99 | 102 | 98 | 98.8 | > 10 | 0 |  |  |  |  |  |  | 
11 | Fc1cccc(/C=N/N=C/c2cccc(F)c2)c1 [DFB] | 99.5 | 110 | 100 | 102 | 101 | 115 | 111 | 98.8 | 105 | 104 |  |  |  |  |  | > 10 | > 10 |  | 0 | 0 |  |  |  |  |  |  |  |  | 99.9 | 98.7 | 90 | 97.3 | 98.6 | > 10 | 0
12 | COc1ccc2c(c1)/C(=C/c1cnc[nH]1)C(=O)N2 [SU9516] | 101 | 96 | 95.3 | 105 | 96.8 | 99.9 | 109 | 112 | 122 | 134 | 101 | 103 | 101 | 106 | 83.7 | > 10 | > 10 | > 10 | 0 | 0 | 0.2 | 105 | 105 | 97.7 | 90.8 | 59.3 |  | 3.5 | 97.4 | 99.4 | 95.3 | 104 | 79 | > 10 | 0.5
13 | Nc1sc2c(c1C(=O)c1ccc(Cl)cc1)CCCC2 [T-62] | 93.7 | 99.3 | 88.8 | 92.4 | 90.8 |  |  |  |  |  | 98.5 | 101 | 100 | 101 | 98 | > 10 |  | > 10 | 0 |  | 0 | 105 | 98 | 103 | 101 | 107 | > 10 | 0 |  |  |  |  |  |  | 
14 | CNc1nc(NCc2ccc(NS(C)(=O)=O)cc2Cl)cc(-c2ccccn2)n1 [TC-G-1008] | 93.1 | 105 | 90.4 | 95.1 | 78.5 | 105 | 113 | 98.2 | 90 | 83.7 | 100 | 108 | 101 | 100 | 79 | > 10 | > 10 | > 10 | 0.9 | 0.9 | 0.6 | 93.9 | 91.2 | 106 | 99.4 | 54.8 |  | 2.4 | 105 | 106 | 98.3 | 101 | 81.5 | > 10 | 0.4
15 | NC(=O)c1nc(Nc2ccccc2)sc1NC(=O)C1CCCCC1 [UNC3230] | 98.6 | 97.8 | 98 | 89.2 | 75.1 | 86.3 | 84.9 | 90.8 | 79 | 69.7 | 102 | 96.9 | 97.5 | 93.8 | 88.8 | > 10 |  | > 10 | 1.9 | 5.6 | 0 | 96.6 | 104 | 88.1 | 104 | 88.5 | > 10 | 0 | 99.1 | 92.6 | 98.1 | 99 | 70.8 |  | 1.4
16 | O=c1ncn2nc(Sc3ccc(F)cc3F)ccc2c1-c1c(Cl)cccc1Cl [VX-745] | 107 | 96.5 | 104 | 99.7 | 82.6 | 97.1 | 107 | 98.7 | 82.9 | 95 | 102 | 108 | 98.4 | 94.9 | 87.9 | > 10 | > 10 | > 10 | 0.4 | 2.1 | 0.1 |  |  |  |  |  |  |  | 106 | 105 | 95.8 | 86.1 | 86.1 | > 10 | 1.4
17 | CCOc1ccc2nc(SCCN3CCOCC3)[nH]c2c1 [afobazole] | 102 | 110 | 104 | 99.5 | 102 | 95.5 | 97.8 | 84.4 | 101 | 99.8 |  |  |  |  |  | > 10 | > 10 |  | 0 | 0 |  | 112 | 101 | 107 | 99.5 | 103 | > 10 | 0 |  |  |  |  |  |  | 
